This is an account of results in patent publication US20240383886A1, “Protein Tyrosine Phosphatase Degraders and Methods of Use Thereof” (CALICO LIFE SCIENCES LLC, priority 2019, published 2024).

Test [1] has as its target T1, PTPN2 (Homo sapiens, UniProt P17706).
T1 construct: expressed in transfected cells; host or cells: 293T (293T.109 HiBiT-PTPN2 line; parental 293T WT from ATCC)
T1 sequence (P17706 1-415): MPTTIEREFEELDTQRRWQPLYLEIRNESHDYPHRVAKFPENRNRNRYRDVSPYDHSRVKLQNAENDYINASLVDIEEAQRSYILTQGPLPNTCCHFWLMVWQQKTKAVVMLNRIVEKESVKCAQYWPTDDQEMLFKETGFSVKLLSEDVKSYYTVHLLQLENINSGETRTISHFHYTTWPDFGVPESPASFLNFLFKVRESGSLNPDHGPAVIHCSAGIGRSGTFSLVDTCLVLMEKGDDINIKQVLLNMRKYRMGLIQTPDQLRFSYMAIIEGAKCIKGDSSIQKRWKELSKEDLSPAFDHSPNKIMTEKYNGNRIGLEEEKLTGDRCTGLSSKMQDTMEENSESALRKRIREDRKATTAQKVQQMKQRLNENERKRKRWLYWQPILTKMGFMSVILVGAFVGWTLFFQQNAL
The experiment in a line: HiBiT-Degradation 293T.109 PTPN2 (Nano-Glo HiBiT Lytic Assay). Type of test: cell-based. The note with it: 293T.109 (HiBiT-PTPN2) cells, 24.0 hours. In short, it runs like this:
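Luminescence from a lytic HiBiT read gave PTPN2 levels after 24 h compound exposure at 37° C. Compounds were tested at 11 half-log points from a 10 μM top concentration, in duplicate. The cells were 293T engineered with an N-terminal HiBiT–PTPN2 fusion, plated at 5000 per well, with untreated wells as negative control and no-reagent wells as positive control.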

Test [2] relates to PTPN2. The experiment in a line: HiBiT-Degradation B16F10.4 PTPN2. Type of test: cell-based. The note with it: B16F10.4 cells, 24.0 hours.

For orientation: DC50 means the concentration at which degradation of the target reaches its halfway point. Low readings indicate degradation at low concentration, high ones degradation only at high concentration. As for `Cn1c(=O)n(C2CCC(=O)NC2=O)c2ccc(C3CCN(CCS(=O)(=O)N4CC=C(c5ccc6cc(O)c(N7CC(=O)NS7(=O)=O)c(F)c6c5)C4)CC3)cc21` (stereo not shown) [Example 107, 3-(5-(1-(2-((3-(7-(1,1-dioxido-4-oxo-1,2,5-thiadiazolidin-2-yl)-8-fluoro-6-hydroxynaphthalen-2-yl)-2,5-dihydro-1H-pyrrol-1-yl)sulfonyl)ethyl)piperidin-4-yl)-3-methyl-2-oxo-2,3-dihydro-1H-benzo[d]imidazol-1-yl)piperidine-2,6-dione], the DC50 at PTPN2 [1] and in the test on PTPN2 [2] was 50 to 200 nM each time.

In the case of `Cn1c(=O)n(C2CCC(=O)NC2=O)c2ccc(N3CCC(CC(=O)N4CC=C(c5ccc6cc(O)c(N7CC(=O)NS7(=O)=O)c(F)c6c5)CC4)CC3)cc21` (stereo not shown) [Example 127, 3-[5-[4-[2-[4-[8-fluoro-6-hydroxy-7-(1,1,4-trioxo-1,2,5-thiadiazolidin-2-yl)-2-naphthyl]-3,6-dihydro-2H-pyridin-1-yl]-2-oxo-ethyl]-1-piperidyl]-3-methyl-2-oxo-benzimidazol-1-yl]piperidine-2,6-dione], the DC50 fell in the range of 50 to 200 nM on PTPN2 [1] and 200 to 1000 nM in the test on PTPN2 [2].

For `Cn1c(=O)n(C2CCC(=O)NC2=O)c2ccc(C3CCN(CCC(=O)NCCOc4ccc5cc(O)c(N6CC(=O)NS6(=O)=O)c(F)c5c4)CC3)cc21` (stereo not shown) [Example 6, N-(2-((7-(1,1-dioxido-4-oxo-1,2,5-thiadiazolidin-2-yl)-8-fluoro-6-hydroxynaphthalen-2-yl)oxy)ethyl)-3-(4-(1-(2,6-dioxopiperidin-3-yl)-3-methyl-2-oxo-2,3-dihydro-1H-benzo[d]imidazol-5-yl)piperidin-1-yl)propanamide], the DC50 was 50 to 200 nM at PTPN2 [1] and not below 1000 nM in the test on PTPN2 [2].

Turning to `Cn1c(=O)n(C2CCC(=O)NC2=O)c2ccc(N3CCC4(CC3)CN(C(=O)c3ccc5c(F)c(N6CC(=O)NS6(=O)=O)c(O)cc5c3)C4)cc21` (stereo not shown) [Example 56], the DC50 at PTPN2 [1] was not below 1000 nM; with PTPN2 [2], 200 to 1000 nM.

In the case of `Cn1c(=O)n(C2CCC(=O)NC2=O)c2ccc(Nc3ccc(C(=O)NCCOc4ccc5cc(O)c(N6CC(=O)NS6(=O)=O)c(F)c5c4)cc3)cc21` (stereo not shown) [Example 126, 4-[[1-(2,6-dioxo-3-piperidyl)-3-methyl-2-oxo-benzimidazol-5-yl]amino]-N-[2-[[8-fluoro-6-hydroxy-7-(1,1,4-trioxo-1,2,5-thiadiazolidin-2-yl)-2-naphthyl]oxy]ethyl]benzamide], the DC50 on PTPN2 [1] and in the test on PTPN2 [2] was 200 to 1000 nM throughout.

For the molecule `Cn1c(=O)n(C2CCC(=O)NC2=O)c2ccc(C3CCN(CCCn4cc(-c5ccc6cc(O)c(N7CC(=O)NS7(=O)=O)c(F)c6c5)cn4)CC3)cc21` (stereo not shown) [Example 91, 3-[5-[1-[3-[4-[8-fluoro-6-hydroxy-7-(1,1,4-trioxo-1,2,5-thiadiazolidin-2-yl)-2-naphthyl]pyrazol-1-yl]propyl]-4-piperidyl]-3-methyl-2-oxo-benzimidazol-1-yl]piperidine-2,6-dione], the DC50 at PTPN2 [1] lay within 10 to 50 nM; in the test with PTPN2 [2], 50 to 200 nM.

`Cn1c(=O)n(C2CCC(=O)NC2=O)c2ccc(C3CCN(CC(=O)Nc4ccc5c(F)c(N6CC(=O)NS6(=O)=O)c(O)cc5c4)CC3(F)F)cc21` (stereo not shown) [Example 129, 2-[4-[1-(2,6-dioxo-3-piperidyl)-3-methyl-2-oxo-benzimidazol-5-yl]-3,3-difluoro-1-piperidyl]-N-[5-fluoro-7-hydroxy-6-(1,1,4-trioxo-1,2,5-thiadiazolidin-2-yl)-2-naphthyl]acetamide]: the DC50 on PTPN2 [1] and in the test with PTPN2 [2] was 50 to 200 nM each time.

With `Cn1nc(C2CCC(=O)NC2=O)c2ccc([C@H]3CC[C@H](CC(=O)Nc4ccc5c(F)c(N6CC(=O)NS6(=O)=O)c(O)cc5c4)CC3)cc21` (single isomer, unassigned) [Example 179, N-(6-(1,1-dioxido-4-oxo-1,2,5-thiadiazolidin-2-yl)-5-fluoro-7-hydroxynaphthalen-2-yl)-2-((trans)-4-(3-(2,6-dioxopiperidin-3-yl)-1-methyl-1H-indazol-6-yl)cyclohexyl)acetamide], the figures for the half-maximal degradation concentration (DC50) at PTPN2 [1] and in the test with PTPN2 [2] were 10 to 50 nM and 200 to 1000 nM, respectively.

For `Cn1c(=O)n(C2CCC(=O)NC2=O)c2ccc(C3CCN(CCCCCOc4ccc5cc(O)c(N6CC(=O)NS6(=O)=O)c(F)c5c4)CC3)cc21` (stereo not shown) [Example 95, 3-[5-[1-[5-[[8-fluoro-6-hydroxy-7-(1,1,4-trioxo-1,2,5-thiadiazolidin-2-yl)-2-naphthyl]oxy]pentyl]-4-piperidyl]-3-methyl-2-oxo-benzimidazol-1-yl]piperidine-2,6-dione], the 50% degradation concentration (DC50) fell in the range of 10 to 50 nM on PTPN2 [1] and 50 to 200 nM in the test with PTPN2 [2].

On to `Cn1c(=O)n(C2CCC(=O)NC2=O)c2ccc(N3CCN(CC(=O)Nc4ccc5c(F)c(N6CC(=O)NS6(=O)=O)c(O)cc5c4)CC3)cc21` (stereo not shown) [Example 159, 2-[4-[1-(2,6-dioxo-3-piperidyl)-3-methyl-2-oxo-benzimidazol-5-yl]piperazin-1-yl]-N-[5-fluoro-7-hydroxy-6-(1,1,4-trioxo-1,2,5-thiadiazolidin-2-yl)-2-naphthyl]acetamide], for which the half-maximal degradation concentration (DC50) at PTPN2 [1] and in the test on PTPN2 [2] was 50 to 200 nM throughout.

Consider `Cn1c(=O)n(C2CCC(=O)NC2=O)c2ccc([C@H]3CC[C@@H](CNC(=O)c4ccc5c(F)c(N6CC(=O)NS6(=O)=O)c(O)cc5c4)CC3)cc21` (single isomer, unassigned) [Example 75], for which the half-maximal degradation concentration (DC50) on PTPN2 [1] and in the test on PTPN2 [2] was 50 to 200 nM in each case.

For the molecule `O=C1CCC(N2Cc3cc(NCc4cnn(CCC(=O)Nc5ccc6c(F)c(N7CC(=O)NS7(=O)=O)c(O)cc6c5)c4)ccc3C2=O)C(=O)N1` (stereo not shown) [Example 16, 3-[4-[[[2-(2,6-dioxo-3-piperidyl)-1-oxo-isoindolin-5-yl]amino]methyl]pyrazol-1-yl]-N-[5-fluoro-7-hydroxy-6-(1,1,4-trioxo-1,2,5-thiadiazolidin-2-yl)-2-naphthyl]propanamide], the DC50 lay within 50 to 200 nM on PTPN2 [1] and 200 to 1000 nM with PTPN2 [2].

Consider `Cn1c(=O)n(C2CCC(=O)NC2=O)c2ccc(C3CCN(CCNC(=O)c4ccc5c(F)c(N6CC(=O)NS6(=O)=O)c(O)cc5c4)CC3)cc21` (stereo not shown) [Example 29, N-[2-[4-[1-(2,6-dioxo-3-piperidyl)-3-methyl-2-oxo-benzimidazol-5-yl]-1-piperidyl]ethyl]-5-fluoro-7-hydroxy-6-(1,1,4-trioxo-1,2,5-thiadiazolidin-2-yl)naphthalene-2-carboxamide], for which the figures for the half-maximal degradation concentration (DC50) at PTPN2 [1] and in the test on PTPN2 [2] were less than 10 nM and 50 to 200 nM, respectively.

As to `Cn1c(=O)n(C2CCC(=O)NC2=O)c2cccc(C3CCN(CC(=O)Nc4ccc5c(F)c(N6CC(=O)NS6(=O)=O)c(O)cc5c4)CC3)c21` (stereo not shown) [Example 25, 2-[4-[1-(2,6-dioxo-3-piperidyl)-3-methyl-2-oxo-benzimidazol-4-yl]-1-piperidyl]-N-[5-fluoro-7-hydroxy-6-(1,1,4-trioxo-1,2,5-thiadiazolidin-2-yl)-2-naphthyl]acetamide], the half-maximal degradation concentration (DC50) was 200 to 1000 nM on PTPN2 [1] and not below 1000 nM in the test with PTPN2 [2].

For the molecule `Cn1c(=O)n([C@@H]2CCC(=O)NC2=O)c2ccc(C3CCN(CC(=O)NCCOc4ccc5cc(O)c(N6CC(=O)NS6(=O)=O)c(F)c5c4)CC3)cc21` [Example 92, 2-[4-[1-[(3R)-2,6-dioxo-3-piperidyl]-3-methyl-2-oxo-benzimidazol-5-yl]-1-piperidyl]-N-[2-[[8-fluoro-6-hydroxy-7-(1,1,4-trioxo-1,2,5-thiadiazolidin-2-yl)-2-naphthyl]oxy]ethyl]acetamide], the DC50 lay within 50 to 200 nM at PTPN2 [1] and 200 to 1000 nM in the test on PTPN2 [2].

Take `O=C(CCC1CCN(C(=O)CNc2cccc3c2C(=O)N(C2CCC(=O)NC2=O)C3=O)CC1)NCCOc1ccc2cc(O)c(N3CC(=O)NS3(=O)=O)c(F)c2c1` (stereo not shown) [Example 41]: the DC50 on PTPN2 [1] was 200 to 1000 nM; in the test with PTPN2 [2], not below 1000 nM.

For the molecule `Cn1c(=O)n(C2CCC(=O)NC2=O)c2ccc(N3CCC(O)(CC(=O)Nc4ccc5c(F)c(N6CC(=O)NS6(=O)=O)c(O)cc5c4)CC3)cc21` (stereo not shown) [Example 82, 2-[1-[1-(2,6-dioxo-3-piperidyl)-3-methyl-2-oxo-benzimidazol-5-yl]-4-hydroxy-4-piperidyl]-N-[5-fluoro-7-hydroxy-6-(1,1,4-trioxo-1,2,5-thiadiazolidin-2-yl)-2-naphthyl]acetamide], the half-maximal degradation concentration (DC50) on PTPN2 [1] is less than 10 nM; in the test with PTPN2 [2], 200 to 1000 nM.

For the molecule `CN(CCOc1ccc2cc(O)c(N3CC(=O)NS3(=O)=O)c(F)c2c1)C(=O)CN1CCC(c2ccc3c(c2)n(C)c(=O)n3C2CCC(=O)NC2=O)CC1` (stereo not shown) [Example 97, 2-[4-[1-(2,6-dioxo-3-piperidyl)-3-methyl-2-oxo-benzimidazol-5-yl]-1-piperidyl]-N-[2-[[8-fluoro-6-hydroxy-7-(1,1,4-trioxo-1,2,5-thiadiazolidin-2-yl)-2-naphthyl]oxy]ethyl]-N-methyl-acetamide], the DC50 on PTPN2 [1] was 50 to 200 nM; with PTPN2 [2], 200 to 1000 nM.

Take `Cn1c(=O)n(C2CCC(=O)NC2=O)c2ccc(Nc3ccc(NC(=O)c4ccc5c(F)c(N6CC(=O)NS6(=O)=O)c(O)cc5c4)cc3)cc21` (stereo not shown) [Example 132]: the results for the half-maximal degradation concentration (DC50) on PTPN2 [1] and in the test with PTPN2 [2] were 50 to 200 nM and 200 to 1000 nM, respectively.

Consider `O=C(CCOCCn1cc(CNc2cccc3c2C(=O)N(C2CCC(=O)NC2=O)C3=O)nn1)NCCOc1ccc2cc(O)c(N3CC(=O)NS3(=O)=O)c(F)c2c1` (stereo not shown) [Example 48], for which the 50% degradation concentration (DC50) on PTPN2 [1] and in the test on PTPN2 [2] was not below 1000 nM throughout.
